# Tests used:
# [1] = biological target: T1, DGKα (hDGKalpha(1-735)-N-His) (Homo sapiens, UniProt P23743); assay: In vitro DGK inhibition assay, DGKalpha ADP Glo (in house); format: biochemical; conditions: 4 nM DGKα, 25 μM ATP, 125 uM DLG in liposomes, 1 hour reaction
# T1 construct: hDGKalpha(1-735)-N-His; His (N); made in house; host or cells: Sf21 insect cells (baculovirus)
# Outline: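 Full-length His-tagged human DGKα (4 nM) or DGKζ (2 nM), expressed in Sf21 cells, phosphorylated 125 µM DLG in PS/PC liposomes with ATP at 25 µM (α) or 50 µM (ζ) for 1 h. ADP was measured by ADP-Glo luminescence. Compounds were tested as 11-point 1:3 series in 2% DMSO.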
# primary human T-cells = assay: Proliferation assay (5 days, CellTiter-Glo, CD3-stimulated T-cells); format: cell-based; conditions: for Emax proliferation (% activation): CD3 condition, normalised to DMSO (neutral) and 20 μM reference compound A1 = 100%; for EC50: Homo sapiens, T-cell, 120 h, CD3-stimulated primary human T-cells, 5 days, CellTiter-Glo, fitted sigmoidal curve, read-out: Tcell Proliferation CD3 EC50
# Outline: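 Expanded primary human T-cells, 100 k cells/well, were stimulated with plate-coated CD3 antibody (donor-titrated) and given compound in a 5 or 6 pt dose response from 20 μM or 10 μM final top, 0.2% DMSO final. ATP was read by CellTiter-Glo after 5 days. EC50 and Emax were reported as % of 20 μM reference compound A1.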
# T1 sequence (P23743 whole entry): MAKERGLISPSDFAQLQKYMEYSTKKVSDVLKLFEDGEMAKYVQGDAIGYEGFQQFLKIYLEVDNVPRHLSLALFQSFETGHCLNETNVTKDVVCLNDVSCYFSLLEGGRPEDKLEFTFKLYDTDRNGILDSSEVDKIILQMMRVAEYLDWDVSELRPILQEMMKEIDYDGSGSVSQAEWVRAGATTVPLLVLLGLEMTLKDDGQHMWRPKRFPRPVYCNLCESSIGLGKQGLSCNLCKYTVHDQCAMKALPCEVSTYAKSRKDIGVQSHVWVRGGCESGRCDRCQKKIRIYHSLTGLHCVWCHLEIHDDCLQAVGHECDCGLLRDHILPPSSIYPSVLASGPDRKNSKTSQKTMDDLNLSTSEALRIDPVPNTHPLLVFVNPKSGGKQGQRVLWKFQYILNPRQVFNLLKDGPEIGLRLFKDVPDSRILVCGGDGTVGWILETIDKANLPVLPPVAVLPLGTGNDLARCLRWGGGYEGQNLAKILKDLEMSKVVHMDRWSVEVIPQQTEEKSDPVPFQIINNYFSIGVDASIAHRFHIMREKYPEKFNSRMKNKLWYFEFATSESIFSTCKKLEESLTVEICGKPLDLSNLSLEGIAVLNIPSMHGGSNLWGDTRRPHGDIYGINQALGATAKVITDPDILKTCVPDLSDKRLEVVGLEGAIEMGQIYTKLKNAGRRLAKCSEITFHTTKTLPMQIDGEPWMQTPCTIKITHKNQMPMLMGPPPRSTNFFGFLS
IC50 [1],Structure (SMILES),Emax proliferation (% activation) (primary human T-cells),EC50 (primary human T-cells)
1.86 µM,"Cc1cc(C)n(-c2ccc(CN3C(=O)[C@@H](N)CS(=O)(=O)c4ccc(-c5nnc(C(C)(C)C)o5)cc43)cc2)n1 [Example 22, (3R)-3-amino-7-(5-tert-butyl-1,3,4-oxadiazol-2-yl)-5-[[4-(3,5-dimethylpyrazol-1-yl)phenyl]methyl]-1,1-dioxo-2,3-dihydro-1λ^6,5-benzothiazepin-4-one]",69 % activation,3930 nM
9.86 µM,"CC(C)(C)c1nnc(-c2ccc3c(c2)N(Cc2ccc(-c4nnc(C(F)(F)F)o4)cc2)C(=O)[C@@H](N)CS3(=O)=O)o1 [Example 24, (3R)-3-amino-7-(5-tert-butyl-1,3,4-oxadiazol-2-yl)-1,1-dioxo-5-[[4-[5-(trifluoromethyl)-1,3,4-oxadiazol-2-yl]phenyl]methyl]-2,3-dihydro-1λ^6,5-benzothiazepin-4-one]",142 % activation,775 nM
39.4 µM,"CC(N)(c1nnc(-c2ccc3c(c2)N(Cc2ccc(-c4noc(C(F)(F)F)n4)cc2)C(=O)[C@@H](N)CS3(=O)=O)o1)C(F)(F)F (stereo partly drawn) [Example 32, (3R)-3-amino-7-[5-(1-amino-2,2,2-trifluoro-1-methyl-ethyl)-1,3,4-oxadiazol-2-yl]-1,1-dioxo-5-[[4-[5-(trifluoromethyl)-1,2,4-oxadiazol-3-yl]phenyl]methyl]-2,3-dihydro-1λ^6,5-benzothiazepin-4-one]",153 % activation,468 nM
12.2 µM,"CC(C)(C)C(N)c1nnc(-c2ccc3c(c2)N(Cc2ccc(-c4noc(C(F)(F)F)n4)cc2)C(=O)[C@@H](N)CS3(=O)=O)o1 (stereo partly drawn) [Example 34, (3R)-3-amino-7-[5-(1-amino-2,2-dimethyl-propyl)-1,3,4-oxadiazol-2-yl]-1,1-dioxo-5-[[4-[5-(trifluoromethyl)-1,2,4-oxadiazol-3-yl]phenyl]methyl]-2,3-dihydro-1λ^6,5-benzothiazepin-4-one]",67 % activation,1180 nM
10.1 µM,"CC(C#N)c1nnc(-c2ccc3c(c2)N(Cc2ccc(-c4noc(C(F)(F)F)n4)cc2)C(=O)[C@@H](N)CS3(=O)=O)o1 (stereo partly drawn) [Example 35, 2-[5-[(3R)-3-amino-1,1,4-trioxo-5-[[4-[5-(trifluoromethyl)-1,2,4-oxadiazol-3-yl]phenyl]methyl]-2,3-dihydro-1λ^6,5-benzothiazepin-7-yl]-1,3,4-oxadiazol-2-yl]propanenitrile]",99 % activation,2490 nM
2.6 µM,"N[C@H]1CS(=O)(=O)c2ccc(-c3nnc(C4(C5CC5)CCCO4)o3)cc2N(Cc2ccc(-c3noc(C(F)(F)F)n3)cc2)C1=O (stereo partly drawn) [Example 36, (3R)-3-amino-7-[5-(2-cyclopropyl-tetrahydrofuran-2-yl)-1,3,4-oxadiazol-2-yl]-1,1-dioxo-5-[[4-[5-(trifluoromethyl)-1,2,4-oxadiazol-3-yl]phenyl]methyl]-2,3-dihydro-1λ^6,5-benzothiazepin-4-one]",108 % activation,91.7 nM
2 µM,"COC(F)(c1nnc(-c2ccc3c(c2)N(Cc2ccc(-c4noc(C(F)(F)F)n4)cc2)C(=O)[C@@H](N)CS3(=O)=O)o1)C(F)(F)F (stereo partly drawn) [Example 37, (3R)-3-amino-1,1-dioxo-7-[5-(1,2,2,2-tetrafluoro-1-methoxy-ethyl)-1,3,4-oxadiazol-2-yl]-5-[[4-[5-(trifluoromethyl)-1,2,4-oxadiazol-3-yl]phenyl]methyl]-2,3-dihydro-1λ^6,5-benzothiazepin-4-one]",173 % activation,304 nM
9.77 µM,"CC(C)(C#N)c1nnc(-c2ccc3c(c2)N(Cc2ccc(-c4noc(C(F)(F)F)n4)cc2)C(=O)[C@@H](N)CS3(=O)=O)o1 [Example 38, 2-[5-[(3R)-3-amino-1,1,4-trioxo-5-[[4-[5-(trifluoromethyl)-1,2,4-oxadiazol-3-yl]phenyl]methyl]-2,3-dihydro-1λ^6,5-benzothiazepin-7-yl]-1,3,4-oxadiazol-2-yl]-2-methyl-propanenitrile]",97 % activation,640 nM
19 µM,"N[C@H]1CS(=O)(=O)c2ccc(-c3nnc(C4(N)CCCCC4)o3)cc2N(Cc2ccc(-c3noc(C(F)(F)F)n3)cc2)C1=O [Example 39, (3R)-3-amino-7-[5-(1-aminocyclohexyl)-1,3,4-oxadiazol-2-yl]-1,1-dioxo-5-[[4-[5-(trifluoromethyl)-1,2,4-oxadiazol-3-yl]phenyl]methyl]-2,3-dihydro-1λ^6,5-benzothiazepin-4-one]",91 % activation,181 nM
30.6 µM,"N[C@H]1CS(=O)(=O)c2ccc(-c3nnc(C4(N)CCCCC4)o3)cc2N(Cc2ccc(-c3ccc(C(F)(F)F)cn3)cc2)C1=O [Example 41, (3R)-3-amino-7-[5-(1-aminocyclohexyl)-1,3,4-oxadiazol-2-yl]-1,1-dioxo-5-[[4-[5-(trifluoromethyl)-2-pyridyl]phenyl]methyl]-2,3-dihydro-1λ^6,5-benzothiazepin-4-one]",85 % activation,902 nM
30.4 µM,"N[C@H]1CS(=O)(=O)c2ccc(-c3nnc(C4(N)CCCCC4)o3)cc2N(Cc2ccc(-c3ccc(C(F)(F)F)cc3)cc2)C1=O [Example 42, (3R)-3-amino-7-[5-(1-aminocyclohexyl)-1,3,4-oxadiazol-2-yl]-1,1-dioxo-5-[[4-[4-(trifluoromethyl)phenyl]phenyl]methyl]-2,3-dihydro-1λ^6,5-benzothiazepin-4-one]",66 % activation,123 nM
17.1 µM,"COc1ccc(-c2ccc(CN3C(=O)[C@@H](N)CS(=O)(=O)c4ccc(-c5nnc(C6(N)CCCCC6)o5)cc43)cc2)cc1 [Example 43, (3R)-3-amino-7-[5-(1-aminocyclohexyl)-1,3,4-oxadiazol-2-yl]-5-[[4-(4-methoxyphenyl)phenyl]methyl]-1,1-dioxo-2,3-dihydro-1λ^6,5-benzothiazepin-4-one]",64 % activation,284 nM
3.38 µM,"COc1ccc(-c2ccc(CN3C(=O)[C@@H](N)CS(=O)(=O)c4ccc(-c5nnc(C6(F)CCCN(C)C6)o5)cc43)cc2)cc1 (stereo partly drawn) [Example 50, (3R)-3-amino-7-[5-(3-fluoro-1-methyl-3-piperidyl)-1,3,4-oxadiazol-2-yl]-5-[[4-(4-methoxyphenyl)phenyl]methyl]-1,1-dioxo-2,3-dihydro-1λ^6,5-benzothiazepin-4-one]",219 % activation,1040 nM
6.26 µM,"CN1CCCC(F)(c2nnc(-c3ccc4c(c3)N(Cc3ccc(-c5ccc(C(F)(F)F)cn5)cc3)C(=O)[C@@H](N)CS4(=O)=O)o2)C1 (stereo partly drawn) [Example 51, (3R)-3-amino-7-[5-(3-fluoro-1-methyl-3-piperidyl)-1,3,4-oxadiazol-2-yl]-1,1-dioxo-5-[[4-[5-(trifluoromethyl)-2-pyridyl]phenyl]methyl]-2,3-dihydro-1λ^6,5-benzothiazepin-4-one]",112 % activation,882 nM
